According to patent US20070043108A1, “Use of equol for ameliorating or preventing neuropsychiatric and neurodegenerative diseases or disorders” (priority 2002, published 2007):
“And” between values parts separate entries of the source, which are not always exact repeats. Equal entries are not always repeated.

Columns and labels:
[1] = system: GDX males; assay: Examples 5 and 6: gonadectomized (GDX) male rats treated with DHTP, equol or both; histology; format: in vivo, rat
Method: One week following arrival, animals are gonadectomized (GDX) under isoflurane anesthesia and allowed to recover for 7 days. Following recovery, animals are assigned to the following groups 1) DMSO, 2) DHTP (2 mg/1 kg), 3) racemic equol (0.25 mg/kg), or 4) both DHTP and racemic equol. Injections are given subcutaneously daily for 4 days. Animals are killed via decapitation and trunk blood and tissues are collected for analysis.
Tissues, including prostate, testes and epididymis, are removed from the animal, dissected free of fat and connective tissues, weighed, fixed by immersion in 4% paraformaldehyde, and then sectioned at 15 μm on a cryostat. Tissue sections are mounted on charged slides (Superfrost Plus, Fisher Scientific, Pittsburgh, Pa.) prewarmed to 23° C., and stained with hematoxylin and eosin (H&E), dehydrated in ascending alcohol and cleared with xylene.

[2] = target: T1, ERα (Rattus norvegicus, UniProt P06211); assay: Competition binding of equol enantiomers with [3H]E2 for in vitro translated ERα
T1 construct: Full length rat ERα expression vector (pcDNA-ERα; RH Price UCSF); made in house; host or cells: TnT-coupled rabbit reticulocyte lysate in vitro translation (Promega)
T1 sequence (P06211 1-600): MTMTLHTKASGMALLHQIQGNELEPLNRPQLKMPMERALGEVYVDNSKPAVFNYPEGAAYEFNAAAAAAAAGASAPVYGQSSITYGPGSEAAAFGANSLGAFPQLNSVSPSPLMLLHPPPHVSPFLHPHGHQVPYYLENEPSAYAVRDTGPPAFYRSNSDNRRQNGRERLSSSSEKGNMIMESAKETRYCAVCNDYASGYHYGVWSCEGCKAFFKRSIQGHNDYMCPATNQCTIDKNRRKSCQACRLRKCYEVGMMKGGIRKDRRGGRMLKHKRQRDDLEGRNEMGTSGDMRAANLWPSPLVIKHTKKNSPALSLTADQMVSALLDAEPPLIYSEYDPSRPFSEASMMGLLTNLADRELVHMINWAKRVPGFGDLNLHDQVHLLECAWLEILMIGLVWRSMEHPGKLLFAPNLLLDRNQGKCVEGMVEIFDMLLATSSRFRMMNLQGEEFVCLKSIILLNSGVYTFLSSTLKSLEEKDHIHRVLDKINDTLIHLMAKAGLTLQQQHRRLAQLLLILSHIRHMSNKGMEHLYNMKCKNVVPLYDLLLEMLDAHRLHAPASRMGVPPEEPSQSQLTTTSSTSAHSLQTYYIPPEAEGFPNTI
Method: (§1) In vitro binding studies were performed to examine the relative affinities of S— and R-enantiomeric equol with the estrogen receptors ERα and ERβ.
(§2) Synthesis of Hormone Receptor Proteins: Full length rat ERα expression vector (pcDNA-ERα; RH Price UCSF) and ERβ expression vector (pcDNA-ERβ; T A Brown, Pfizer, Groton, […].) were used to synthesize hormone receptors in vitro using the TnT-coupled reticulocyte lysate system (Promega, Madison, Wis.) with T7-RNA polymerase, during a 90 min reaction at 30° C. Translation reaction mixtures were stored at −80° C. until further use.
(§3) Saturation isotherms: In order to calculate and establish the binding affinity of the S-equol and R-equol enantiomers for ERα and ERβ, 100 μL aliquots of reticulocyte lysate supernatant were incubated at optimal time and temperature; 90 min at room temperature (ERβ) and 18 hrs at 4° C. (ERα), with increasing (0.01-100 nm) concentrations of [3H] […] These times were determined empirically and represent optimal binding of receptor with estrogen. Nonspecific binding was assessed using a 300-fold excess of the ER agonist diethylstilbestrol, in parallel tubes. Following incubation, bound and unbound [3H]E2 were separated by passing the incubation reaction through a 1 mL lipophilic Sephadex LH-20 (Sigma-Aldrich Co., Saint Louis, Mo.) column Columns were constructed by packing a disposable pipette tip (1 mL; Labcraft, Curtin Matheson Scientific, Inc, Houston, Tex.) with TEGMD (10 mm Tris-Cl, 1.5 mm EDTA, 10% glycerol, 25 mm molybdate, and 1 mm dithiothreitol, pH 7.4)-saturated Sephadex according to previously published protocols (Wanda et al., 1986; O'Keefe and Handa, 1990). For chromatography, the columns were re-equilibrated with TEGMD (100 μL), and the incubation reactions were added individually to each column and allowed to incubate on the column for an additional 30 min. Following this incubation, 600 μL of TEGMD were added to each column, flow-through was collected, 4 mL scintillation fluid was added, and samples were counted (5 min each) in an 2900 TR Packard scintillation counter (Packard Bioscience, Meriden, Conn.).
(§4) Competition binding studies were used to assess the estrogenic properties of equol's S-equol and R-equol enantiomers. Based on the ability of S and R to compete with [3H]

[3] = target: T2, ERβ (Rattus norvegicus, UniProt Q62986); assay: Competition binding of equol enantiomers with [3H]E2 for in vitro translated ERβ
T2 construct: Full length rat ERα expression vector (pcDNA-ERα; RH Price UCSF) and ERβ expression vector (pcDNA-ERβ; T A Brown, Pfizer; made in house; host or cells: TnT-coupled rabbit reticulocyte lysate in vitro translation (Promega)
T2 sequence (Q62986 whole entry): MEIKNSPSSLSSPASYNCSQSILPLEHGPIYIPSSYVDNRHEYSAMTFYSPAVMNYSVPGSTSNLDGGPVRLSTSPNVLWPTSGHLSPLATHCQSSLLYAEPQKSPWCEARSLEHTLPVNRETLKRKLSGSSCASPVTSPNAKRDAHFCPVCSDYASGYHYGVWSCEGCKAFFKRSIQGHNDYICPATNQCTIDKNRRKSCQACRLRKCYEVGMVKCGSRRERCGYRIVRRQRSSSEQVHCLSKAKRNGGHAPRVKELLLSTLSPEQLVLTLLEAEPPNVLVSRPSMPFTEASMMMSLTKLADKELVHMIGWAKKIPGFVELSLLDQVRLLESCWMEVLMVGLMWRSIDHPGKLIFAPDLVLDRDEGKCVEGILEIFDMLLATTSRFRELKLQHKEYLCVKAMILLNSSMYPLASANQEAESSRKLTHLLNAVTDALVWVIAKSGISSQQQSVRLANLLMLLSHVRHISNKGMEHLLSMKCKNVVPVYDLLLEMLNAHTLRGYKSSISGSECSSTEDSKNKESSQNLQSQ
Method: as §1, §2, §3, §4

[4] = target: T3, AR (Rattus norvegicus, UniProt P15207); assay: Binding to the androgen receptor (prostate supernatant, [3H]DHT)
T3 construct: incubated with prostate supernatant and then passed through the 30 cm column; from tissue; host or cells: prostate supernatant
T3 sequence (P15207 1-902): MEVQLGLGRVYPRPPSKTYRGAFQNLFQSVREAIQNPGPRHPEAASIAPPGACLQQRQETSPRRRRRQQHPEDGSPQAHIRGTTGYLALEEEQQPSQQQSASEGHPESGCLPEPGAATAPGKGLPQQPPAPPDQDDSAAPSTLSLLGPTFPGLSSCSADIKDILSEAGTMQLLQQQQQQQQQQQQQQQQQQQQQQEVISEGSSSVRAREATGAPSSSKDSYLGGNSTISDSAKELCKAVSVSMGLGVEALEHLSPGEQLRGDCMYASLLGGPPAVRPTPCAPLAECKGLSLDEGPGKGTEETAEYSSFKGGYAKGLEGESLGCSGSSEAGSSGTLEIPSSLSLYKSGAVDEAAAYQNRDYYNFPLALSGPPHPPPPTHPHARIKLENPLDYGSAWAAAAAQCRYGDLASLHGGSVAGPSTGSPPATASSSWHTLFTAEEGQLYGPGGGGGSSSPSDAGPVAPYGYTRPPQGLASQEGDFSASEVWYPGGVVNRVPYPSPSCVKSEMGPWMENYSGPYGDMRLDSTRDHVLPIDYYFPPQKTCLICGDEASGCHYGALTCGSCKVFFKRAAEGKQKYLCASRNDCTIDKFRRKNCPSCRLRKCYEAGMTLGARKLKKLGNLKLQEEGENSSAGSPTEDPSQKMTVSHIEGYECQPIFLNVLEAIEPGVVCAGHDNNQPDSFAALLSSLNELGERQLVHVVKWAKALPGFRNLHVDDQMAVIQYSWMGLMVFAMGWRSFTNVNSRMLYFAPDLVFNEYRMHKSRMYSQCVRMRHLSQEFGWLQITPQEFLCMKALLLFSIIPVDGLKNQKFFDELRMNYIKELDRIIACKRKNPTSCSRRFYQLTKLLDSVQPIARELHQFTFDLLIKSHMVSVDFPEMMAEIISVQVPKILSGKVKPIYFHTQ

[5] = system: Adult male Sprague-Dawley rats; assay: Example 3: prostate, epididymis and body weight gain in male rats treated with racemic, R- or S-equol; format: in vivo, rat; details: 0.25 mg/kg/day sc, seven days
Method: Adult male Sprague-Dawley rats are randomly assigned to […] groups and receive daily injections of either DMSO, a racemic mixture of equol at 0.250 mg/kg/day), R-equol at 0.250 mg/kg/day, or S-equol at 0.250 mg/kg/day. The total volume of each injection is 0.3 cc, administered sc at the nape of the rat's neck. After seven consecutive days of treatment, the rats are killed and the body weight gain during the injection period is determined.

[6] = system: Adult male Sprague-Dawley rats; assay: Example 15: elevated plus maze of equol injected male rats; format: in vivo, rat; details: 0.250 mg/Kg/day sc, seven days, n = 8
Description: The elevated plus maze is a behavioral test used to quantify anxiety-related behavior and identify anxiolytic drugs (Pellow S. et al., J Neurosci Methods, 14:149-147 (1985); Current Protocols In Neuroscience (1997) 8.3.1-8.3.15, John Wiley & Sons. NY, N.Y.). The test relies on the inherent conflict between exploration of a novel environment and avoidance of its aversive features. Normally, animals spend little time and make few entries into the open arms of the maze compared to the closed arms of the maze (Imhof J. T. et al., Behav Brain Res, 56:177-180 (1993). However, animals treated with anxiolytics, such as benzodiazepines (valium), spend more time in the open arms and the number of entries into the open arms reflects a decrease in anxiety-related behaviors (Pellow S. et al., J Neurosci Methods, 14:149-147 (1985); Current Protocols In Neuroscience (1997) 8.3.1-8.3.15, John Wiley & Sons. NY, N.Y.; Chopin P. et al., Psychopharm, 110:409-414 (1993).
Adult male Sprague-Dawley rats receive daily injections of either DMSO, racemic equol (0.250 mg/Kg/day), R-equol (0.250 mg/Kg/day), or S-equol (0.250 mg/Kg/day) in a total volume of 0.3 cc DMSO by subcutaneous injection. At the end of seven consecutive days of treatment the animals are tested in the elevated plus maze in order to quantify anxiety-related behaviors.

[7] = system: Long-Evans rats, male offspring; assay: Example 19: elevated plus maze of adult male offspring after pre- and early postnatal treatment; format: in vivo, rat
Method: Pregnant Long-Evans rats were treated via daily subcutaneous injections from gestational day 14 through 20 and during lactation from postnatal day 2 through 25 with: 1) control-DMSO vehicle or, 2) genistein@ 3 mg/day or 3) equol@ 3 mg/day according to the treatment groups. All animals were fed a phytoestrogen-low diet throughout these studies (10 ppm isoflavones). There were no significant differences in maternal body weights just before birth among the treatment groups. […] The maternal and male offspring genistein and equol levels @ 25 days post birth) paralleled that of the treatments administered.
At approximately 90 days of age the male offspring were tested by treatments (control, genistein and equol) in the EPM that was video-taped for 3 minutes and later recorded for the number of entries into—and the percentage of total time spent—on the open arms, as previously described. […] Equol time intervals were 2-fold greater than genistein values and genistein levels were approximately 9-fold greater than controls.

[8] = competition with [3H]E2, in vitro translated ER
[9] = 3 mg/day sc to dams, offspring tested at about 90 days

CCC(=O)O[C@H]1CC[C@H]2[C@@H]3CC[C@H]4CC(=O)CC[C@]4(C)[C@H]3CC[C@]12C [DHTP, DHT propionate, reference compound]
LH ([1]; GDX males, given alone, vs DMSO): significantly decreased | prostate weight ([1]; GDX males, given alone, vs vehicle-treated GDX): significant increase | plasma 5α-DHT ([1]; GDX, DHTP 2 mg/kg sc daily for 4 days): significant elevations

Oc1ccc([C@H]2COc3cc(O)ccc3C2)cc1 [S-equol]
relative binding affinity for ERα compared with 17β-estradiol, fold less [2]: 49.2 fold and 49 fold | Kd [2, 8]: 6.41 ± 1.01 nM | affinity for ERβ, fold less [3]: approximately 5 fold | binding to ERβ relative to that of 17β-estradiol [3]: approximately 20% | Kd ([3]; as stated in the background section): 0.7 nM | Kd [3, 8]: 0.73 ± 0.2 nM | binding to the androgen receptor [4]: does not bind the androgen receptor | Body Wt Gain (g) [5]: 56.1 (±3.1) g | Epididymis (g) [5]: 0.86 (±0.05) g | Prostate (g) [5]: 0.35 (±0.03) g | Center Area [6]: 27.5 ± 4.1 s | Open Arm Time [6]: 33.6 ± 7.0 s

O=c1c(-c2ccc(O)cc2)coc2cc(O)cc(O)c12 [genistein]
body weights at birth vs controls ([7]; 3 mg/day sc to dams from gestational day 14): slightly (but not significantly) higher | entries into the open arms vs controls [7, 9]: not significantly different | time in the open arms vs controls [7, 9]: significantly greater | open arm time intervals, fold greater than controls ([7]; offspring tested at about 90 days): approximately 9 fold
